The record followed here is patent publication US9505749B2, “Quinazolinone compounds and derivatives thereof” (AMGEN INC., priority 2012, dated 2016).

Test [1] relates to Axin2 accumulation in SW480 cells. Kind of test: Axin2 384 immunofluorescence assay. It is filed as cell-based. The conditions noted are these: Homo sapiens, read-out: Axin2 384 IF EC50.
Test [2] relates to total β-catenin in SW480 colorectal cells. Briefly: Total β-catenin MSD 96-well plate assay for SW480 cells. To be noted: Homo sapiens, SW480, read-out: SW480-Total beta-catenin (TBC) IC50 IP.
The next test deals with PARP2 (Homo sapiens (Human), UniProt Q9UGN5). Briefly: PARP2 biochemical assay (BPS kit).
Chain of PARP2 (Q9UGN5 whole entry): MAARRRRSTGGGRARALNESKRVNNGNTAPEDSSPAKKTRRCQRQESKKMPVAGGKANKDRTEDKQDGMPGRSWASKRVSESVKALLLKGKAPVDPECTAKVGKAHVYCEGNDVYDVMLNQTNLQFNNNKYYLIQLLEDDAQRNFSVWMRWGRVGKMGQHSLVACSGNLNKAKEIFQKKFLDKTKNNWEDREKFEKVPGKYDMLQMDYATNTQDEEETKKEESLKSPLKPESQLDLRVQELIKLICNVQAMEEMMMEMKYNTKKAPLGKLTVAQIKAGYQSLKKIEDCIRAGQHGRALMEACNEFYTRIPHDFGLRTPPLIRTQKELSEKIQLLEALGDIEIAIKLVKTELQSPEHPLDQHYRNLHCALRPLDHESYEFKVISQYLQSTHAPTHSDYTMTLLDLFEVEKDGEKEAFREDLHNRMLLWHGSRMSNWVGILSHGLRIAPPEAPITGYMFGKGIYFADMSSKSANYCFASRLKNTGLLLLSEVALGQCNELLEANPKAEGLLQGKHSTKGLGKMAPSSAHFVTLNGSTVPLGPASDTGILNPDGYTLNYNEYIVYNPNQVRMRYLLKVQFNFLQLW
A further test concerns the target PARP1 (Homo sapiens (Human), UniProt P09874). Kind of test: PARP1 biochemical assay (Trevigen kit). The text has this: PARP1 biochemical assay was purchased as a kit from Trevigen (cat.#4676-096-K) and used per manufacturers recommendations.

Read-outs that look alike come from different tables or passages of the source.

Chain of PARP1 (P09874 whole entry): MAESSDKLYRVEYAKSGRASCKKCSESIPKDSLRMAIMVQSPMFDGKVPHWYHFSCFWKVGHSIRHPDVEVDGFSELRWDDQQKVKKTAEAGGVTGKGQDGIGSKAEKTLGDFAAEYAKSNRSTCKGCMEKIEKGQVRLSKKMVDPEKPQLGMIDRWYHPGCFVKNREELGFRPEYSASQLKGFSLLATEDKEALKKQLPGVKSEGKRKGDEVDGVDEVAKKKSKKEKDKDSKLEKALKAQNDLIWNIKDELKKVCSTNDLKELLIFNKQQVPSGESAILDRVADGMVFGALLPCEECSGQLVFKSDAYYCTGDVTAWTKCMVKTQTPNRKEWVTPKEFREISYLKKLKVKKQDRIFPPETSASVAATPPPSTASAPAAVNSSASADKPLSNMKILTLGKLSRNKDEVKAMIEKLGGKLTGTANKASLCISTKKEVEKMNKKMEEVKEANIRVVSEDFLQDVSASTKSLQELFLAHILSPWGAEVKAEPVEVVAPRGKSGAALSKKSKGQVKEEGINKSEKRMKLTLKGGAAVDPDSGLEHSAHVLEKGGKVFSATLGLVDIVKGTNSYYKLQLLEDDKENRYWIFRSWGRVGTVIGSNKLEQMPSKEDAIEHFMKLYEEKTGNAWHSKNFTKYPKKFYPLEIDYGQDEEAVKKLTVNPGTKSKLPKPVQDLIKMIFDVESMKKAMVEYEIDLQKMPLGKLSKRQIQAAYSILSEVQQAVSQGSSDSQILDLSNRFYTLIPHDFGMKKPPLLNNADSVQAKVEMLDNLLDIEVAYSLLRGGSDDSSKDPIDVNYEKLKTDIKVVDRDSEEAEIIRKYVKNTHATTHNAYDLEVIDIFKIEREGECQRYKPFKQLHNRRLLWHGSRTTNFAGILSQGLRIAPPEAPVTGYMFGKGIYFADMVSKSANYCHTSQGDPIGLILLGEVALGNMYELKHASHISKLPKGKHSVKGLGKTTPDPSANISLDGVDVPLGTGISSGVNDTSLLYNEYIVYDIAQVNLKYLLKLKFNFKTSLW

A word on the EC50: it is the concentration giving half of the maximal effect. By IC50 is commonly meant the concentration that gives 50% inhibition. Regarding `O=C(CCc1nc2ccccc2c(=O)[nH]1)N[C@H]1CC[C@H](c2nnc(-c3ccc(Cl)cc3)o2)CC1` [Example 141, N-((1r,4r)-4-(5-(4-chlorophenyl)-1,3,4-oxadiazol-2-yl)cyclohexyl)-3-(4-oxo-3,4-dihydroquinazolin-2-yl)propanamide], the EC50 in test [1] (SW480 cells, 24 hours) stood at 228 nM. For the same compound, the IC50 turned out to be 118 nM in test [2] and 677 nM against PARP2.

For the compound `O=C(CCSc1nccc(=O)[nH]1)N[C@H]1CC[C@H](c2nnc(-c3ccccc3)o2)CC1` [Example 123, 3-((6-oxo-1,6-dihydropyrimidin-2-yl)thio)-N-((1r,4r)-4-(5-phenyl-1,3,4-oxadiazol-2-yl)cyclohexyl)propanamide], the IC50 against PARP1 was more than 85000 nM; in test [2], 2130 nM; against PARP2, more than 170000 nM. The EC50 in test [1] (SW480 cells, 24 hours) amounted to 3330 nM.

In the case of `O=C(CCc1nc2ccccc2c(=O)[nH]1)N[C@H]1CC[C@H](c2nnc(-c3ccccc3)o2)CC1` [Example 2, 3-(4-oxo-3,4-dihydro-2-quinazolinyl)-N-(trans-4-(5-phenyl-1,3,4-oxadiazol-2-yl)cyclohexyl)propanamide], the figures for the IC50 (against PARP1; in test [2]; at PARP2) were 2700 nM, 79.7 nM and 982 nM, respectively. The EC50 in test [1] (SW480 cells, 24 hours) amounted to 642 nM.

For the compound `O=C(CCSc1nc2ccccc2c(=O)[nH]1)N[C@H]1CC[C@H](Oc2ccc(F)cc2)CC1` [Example 100, N-((1r,4r)-4-(4-fluorophenoxy)cyclohexyl)-3-((4-oxo-3,4-dihydroquinazolin-2-yl)thio) propanamide], the EC50 in test [1] (SW480 cells, 24 hours) was 22.7 nM. Also, the results for the IC50 (in test [2]; against PARP2) were 16.7 nM and 4950 nM, respectively.

As to `N#Cc1cccc(O[C@H]2CC[C@H](NC(=O)CCSc3nc4ccccc4c(=O)[nH]3)CC2)c1` [Example 109], the IC50 was more than 85000 nM against PARP1, 47.8 nM in test [2] and more than 170000 nM against PARP2. In test [1] (SW480 cells, 24 hours), the EC50 was determined as 50.9 nM.

For the compound `O=C(CCc1nc2ccccc2c(=O)[nH]1)N[C@H]1CC[C@H](c2nnc(-c3ncccn3)o2)CC1` [Example 133, 3-(4-oxo-3,4-dihydroquinazolin-2-yl)-N-((1r,4r)-4-(5-(pyrimidin-2-yl)-1,3,4-oxadiazol-2-yl)cyclohexyl)propanamide], the results for the half-maximal inhibitory concentration (IC50) (on PARP1; in test [2]; at PARP2) were 4620 nM, more than 10000 nM and 1870 nM, respectively.

With `O=C(CCc1nc2c(c(=O)[nH]1)CCCN2)N[C@H]1CC[C@H](c2nnc(-c3ccccc3)o2)CC1` [Example 88, 3-(4-oxo-3,4,5,6,7,8-hexahydropyrido[2,3-d]pyrimidin-2-yl)-N-((1r,4r)-4-(5-phenyl-1,3,4-oxadiazol-2-yl)cyclohexyl)propanamide], the values for the IC50 (on PARP1; in test [2]; against PARP2) were 3500 nM, 1020 nM and 530 nM, respectively.

For `O=C(CCc1cc(=O)n2ccccc2n1)N[C@H]1CC[C@H](c2nnc(-c3ccccc3)o2)CC1` [Example 38, 3-(4-oxo-4H-pyrido[1,2-a]pyrimidin-2-yl)-N-((1r,4r)-4-(5-phenyl-1,3,4-oxadiazol-2-yl)cyclohexyl) propanamide], the EC50 in test [1] (SW480 cells, 24 hours) came out at 8190 nM. The IC50 in test [2] worked out at 1430 nM.

For `O=C(CCCc1nc2ccccc2c(=O)[nH]1)N1CCN(c2noc3ccccc23)CC1` [Example 71, 2-(4-(4-(benzo[d]isoxazol-3-yl)piperazin-1-yl)-4-oxobutyl)quinazolin-4(3H)-one trifluoroacetic acid], in test [1] (SW480 cells, 24 hours), the EC50 was determined as 4170 nM. Also, the IC50 in test [2] is 3440 nM.

For `COc1ccc2c(c1)[nH]c(=O)n2C1CCN(C(=O)CCCc2nc3ccccc3c(=O)[nH]2)CC1` [Example 8, 2-(4-(4-(5-methoxy-2-oxo-2,3-dihydro-1H-benzimidazol-1-yl)-1-piperidinyl)-4-oxobutyl)-4(3H)-quinazolinone], in test [1] (SW480 cells, 24 hours), the EC50 was determined as 81.8 nM. The IC50 in test [2] was found to be 45.4 nM.

For the compound `O=C(CSc1nc2ccccc2c(=O)[nH]1)N[C@H]1CC[C@H](c2nnc(-c3ccccc3)o2)CC1` [Example 96, 2-((4-oxo-3,4-dihydroquinazolin-2-yl)thio)-N-((1r,4r)-4-(5-phenyl-1,3,4-oxadiazol-2-yl)cyclohexyl) acetamide], the values for the IC50 (at PARP1; in test [2]; against PARP2) were 28800 nM, 91.2 nM and 1570 nM, respectively. Also, the EC50 in test [1] (SW480 cells, 24 hours) amounted to 536 nM.

Consider `O=C(CCc1nc2ccccc2c(=O)[nH]1)N[C@H]1CC[C@H](c2nnc(-c3ccccc3F)o2)CC1` [Example 126, N-((1r,4r)-4-(5-(2-fluorophenyl)-1,3,4-oxadiazol-2-yl)cyclohexyl)-3-(4-oxo-3,4-dihydroquinazolin-2-yl)propanamide], for which, at PARP1, inhibition was half-maximal at 5100 nM (IC50).

As to `O=C(CCCc1nc2ccccc2c(=O)[nH]1)N[C@H]1CC[C@H](c2nnc(-c3ccccc3)o2)CC1` [Example 10, 4-(4-oxo-3,4-dihydro-2-quinazolinyl)-N-(trans-4-(5-phenyl-1,3,4-oxadiazol-2-yl)cyclohexyl)butanamide], in test [1] (SW480 cells, 24 hours), the EC50 was found to be 73.9 nM. The IC50 in test [2] was 16.7 nM.

Consider `O=C(CCc1nc2ccccc2c(=O)[nH]1)N[C@H]1CC[C@H](n2c(=O)oc3ccccc32)CC1` [Example 80], for which, in test [1] (SW480 cells, 24 hours), the EC50 worked out at 225 nM. Moreover, the IC50 in test [2] turned out to be 42.3 nM.

Turning to `O=C(CCc1nc2ncccc2c(=O)[nH]1)N[C@H]1CC[C@H](c2nnc(-c3ccccc3)o2)CC1` [Example 81, 3-(4-oxo-3,4-dihydropyrido[2,3-d]pyrimidin-2-yl)-N-((1r,4r)-4-(5-phenyl-1,3,4-oxadiazol-2-yl)cyclohexyl) propanamide], in test [1] (SW480 cells, 24 hours), the EC50 came to 8750 nM. For the same compound, the IC50 in test [2] was 1950 nM; on PARP2 it was 8450 nM.

As for `O=C(CCc1nc2ccccc2c(=O)[nH]1)N[C@H]1CC[C@H](c2nnc(C3CCCCC3)o2)CC1` [Example 138, N-((1r,4r)-4-(5-cyclohexyl-1,3,4-oxadiazol-2-yl)cyclohexyl)-3-(4-oxo-3,4-dihydroquinazolin-2-yl)propanamide], the IC50 at PARP1 came to 5450 nM; against PARP2, 2610 nM. In addition, the EC50 in test [1] (SW480 cells, 24 hours) was more than 25000 nM.

`O=C(CCSc1nc2ccccc2c(=O)[nH]1)N[C@H]1CC[C@H](c2nnc(-c3ccncc3)o2)CC1` [Example 124, 3-((4-oxo-3,4-dihydroquinazolin-2-yl)thio)-N-(trans-4-(5-(pyridin-4-yl)-1,3,4-oxadiazol-2-yl)cyclohexyl)propanamide]: the EC50 in test [1] (SW480 cells, 24 hours) is 0.666 nM. In addition, the IC50 in test [2] worked out at 1.92 nM.

On to `O=C(CCSc1nc2ccccc2c(=O)[nH]1)N[C@H]1CC[C@H](Oc2ccc(Cl)cc2)CC1` [Example 105, N-((1r,4r)-4-(4-chlorophenoxy)cyclohexyl)-3-((4-oxo-3,4-dihydroquinazolin-2-yl)thio) propanamide], for which the figures for the IC50 (against PARP1; in test [2]) were more than 85000 nM and 20 nM, respectively. Moreover, the EC50 in test [1] (SW480 cells, 24 hours) stood at 35.9 nM.

In the case of `O=C(CCCc1nc2ccccc2c(=O)[nH]1)N1CCC(c2noc3ccc(F)cc23)CC1` [Example 72, 2-(4-(4-(5-fluorobenzo[d]isoxazol-3-yl)piperidin-1-yl)-4-oxobutyl)quinazolin-4(3H)-one trifluoroacetic acid], in test [1] (SW480 cells, 24 hours), the EC50 was 630 nM. In addition, in test [2], the IC50 was determined as 1130 nM.

Regarding `O=C(CSc1nc2ccccc2c(=O)[nH]1)N[C@H]1CC[C@H](Oc2ccc(F)cc2)CC1` [Example 99, N-((1r,4r)-4-(4-fluorophenoxy)cyclohexyl)-2-((4-oxo-3,4-dihydroquinazolin-2-yl)thio) acetamide], in test [1] (SW480 cells, 24 hours), the EC50 came out at 2160 nM. In addition, the IC50 in test [2] stood at 2420 nM.

With `O=C(CCCc1nc2ccccc2c(=O)[nH]1)N[C@H]1CC[C@H](Oc2ccccc2)C1` [Example 65, 4-(4-oxo-3,4-dihydroquinazolin-2-yl)-N-((1S,3S)-3-phenoxycyclopentyl)butanamide+4-(4-oxo-3,4-dihydroquinazolin-2-yl)-N-((1R,3R)-3-phenoxycyclopentyl)butanamide], the IC50 in test [2] is more than 10000 nM.

For `O=C1Nc2cc(Cl)ccc2C1C1CCN(C(=O)CCCc2nc3ccccc3c(=O)[nH]2)CC1` (racemic) [Example 76, 2-(4-(4-((3S)-6-chloro-2-oxo-2,3-dihydro-1H-indol-3-yl)-1-piperidinyl)-4-oxobutyl)-4(3H)-quinazolinone trifluoroacetic acid and 2-(4-(4-((3R)-6-chloro-2-oxo-2,3-dihydro-1H-indol-3-yl)-1-piperidinyl)-4-oxobutyl)-4(3H)-quinazolinone trifluoroacetic acid], the EC50 in test [1] (SW480, 24 h) is 2950 nM. Also, in test [2], the IC50 is 3020 nM.

For the compound `O=C(CCCc1nc2ccccc2c(=O)[nH]1)N[C@H]1CC[C@H](n2c(=O)[nH]c3ccccc32)CC1` [Example 73, N-((1r,4r)-4-(2-oxo-2,3-dihydro-1H-benzo[d]imidazol-1-yl)cyclohexyl)-4-(4-oxo-3,4-dihydroquinazolin-2-yl)butanamide trifluoroacetic acid], the EC50 in test [1] (SW480, 24 h) turned out to be 29.6 nM. Besides, the IC50 in test [2] is 21 nM.

On to `O=C(CCCc1nc2ccccc2c(=O)[nH]1)N1CCC(n2nnc3ccccc32)CC1` [Example 75, 2-(4-(4-(1H-benzo[d][1,2,3]triazol-1-yl)piperidin-1-yl)-4-oxobutyl)quinazolin-4(3H)-one trifluoroacetic acid], for which, in test [1] (SW480 cells, 24 hours), the EC50 was 383 nM. In addition, the IC50 in test [2] is 623 nM.

`O=C(CCc1nc2ccccc2c(=O)[nH]1)N[C@H]1CC[C@H](c2nnc(C3CCOCC3)o2)CC1` [Example 135, 3-(4-oxo-3,4-dihydroquinazolin-2-yl)-N-((1r,4r)-4-(5-(tetrahydro-2H-pyran-4-yl)-1,3,4-oxadiazol-2-yl)cyclohexyl)propanamide]: the IC50 in test [2] was more than 10000 nM.

As for `O=C(CCc1nc2ccccc2c(=O)[nH]1)N[C@H]1CC[C@H](c2nnc(-c3ccncc3)o2)CC1` [Example 132, 3-(4-oxo-3,4-dihydroquinazolin-2-yl)-N-((1r,4r)-4-(5-(pyridin-4-yl)-1,3,4-oxadiazol-2-yl)cyclohexyl)propanamide], the results for the IC50 (on PARP1; in test [2]; against PARP2) were 2450 nM, 488 nM and 2640 nM, respectively.
